Patent US9999613B2, “2H-chromene derivatives as analgesic agents” (OBSHESTVO S OGRANICHENNOI OTVETSVENNOSTJU “LEOFORS”, priority 2014, dated 2018)
Marks after values point to notes of the source that are not given here.

What was measured:
[1] = known drugs, data from ref. [2]; cited from earlier work
outbred mice [2] = test: acetic acid induced writhing test (visceral pain model); format: in vivo
Protocol: (§1) Analgesic activity of compounds of general formula 1 was studied in the model of visceral pain <<acetic acid induced writhing test>> and thermal irritation test <<hot plate>> in white outbred mice of body mass 20-22 g in groups of 8 animals each after single administration in 1÷20 mg/kg doses.
Acetic acid induced writhing test was performed by intraperitoneal administration of 0.1 ml of 0.75% acetic acid to an animal. Activity was assessed by the quantity of writhing movements during 3 min.
Tests were carried out in outbred male mice with body mass 22-25 g. Experimental groups were formed, with 8 animals in each. <<Acetic writhes>> were produced by intraperitoneal administration of 0.75% acetic acid, 0.1 ml per animal. Test compounds were administered once intragastrically an hour before acetic acid administration. Animals that received only acetic acid were used as control. Activity was assessed by the quantity of writhes during 3 min.

outbred mice [3] = test: hot plate test (thermal irritation); format: in vivo
Protocol: as §1
Hot plate test characterizes thermal stimulus. The animals were placed on a copper plate, T=54° C. The effect was assessed by the duration of stay of the animal on the hot plate before the first vocalization.
Tests were carried out in outbred male mice of body mass 22-25 g. Experimental groups were formed, with 8 animals in each. The animals were placed on a copper hot plate, T=54° C. The effects were assessed by the duration of animal stay on the hot plate before the first <>, in seconds.
Test compounds were administered once intragastrically an hour before the test. Control animals received the corresponding solvent.

outbred mice [4] = test: acetic acid induced writhing test (visceral pain model); format: in vivo; details: 0.5 mg/kg, intragastric
outbred mice [5] = test: hot plate test (thermal irritation); format: in vivo; details: 0.5 mg/kg, intragastric
white outbred mice = test: acute toxicity, single intragastric administration, Kerber method
[6] = known drugs, data from ref. [2]; cited from earlier work; remark: listed apart in the source
[7] = 1 mg/kg dose, compared with sodium diclofenac 10 mg/kg
[8] = 10 mg/kg, intragastric, (control − exp)/control · 100%
[9] = 10 mg/kg, once intragastrically 1 h before 0.75% acetic acid i.p., writhes during 3 min
[10] = 10 mg/kg, intragastric, (exp − control)/control · 100%
[11] = 10 mg/kg, once intragastrically 1 h before test, plate 54° C, time to first vocalization

In the case of CC(=O)Oc1ccccc1C(=O)O [Acetylsalicylic acid], the “ED50 in acetic acid induced writhing test” value (from here on “ED50”) [1] is given as 155 mg/kg.
For CC1CCC2C(C1)OC(c1cccs1)CC2(C)O (stereo not shown) [Compound 1a, 4,7-dimethyl-2-(thiophene-2-yl)octahydro-2H-chromene-4-ol], the “analgesic activity in acetic acid induced writhing test (in words)” value (outbred mice [2]; [7]) was “potent analgesic activity”, the “Pain reduction, %” value (outbred mice [2]; 1 mg/kg, intragastric) was 71% and the “Writhes, quantity (Agent)” value (outbred mice [2]; 1 mg/kg, intragastric) was 2.4 ± 0.8. For the same compound, the “Pain reduction, %” value (outbred mice [2]; 5 mg/kg, intragastric) was 42%, the “Writhes, quantity (Agent)” value (outbred mice [2]; 5 mg/kg, intragastric) was 4.9 ± 1.0 and the “analgesic activity in acetic acid induced writhing test (in words)” value (outbred mice [2]; 10 mg/kg dose) was “more effective than sodium diclofenac”. For the same compound, the “Pain reduction, %” value (outbred mice [2]; [8]) was 55%, the “Writhes, quantity (Agent)” value (outbred mice [2]; [9]) was 4.3 ± 1.1 and the “Pain reduction, %” value (outbred mice [2]; 20 mg/kg, intragastric) was 25%. For the same compound, the “Writhes, quantity (Agent)” value (outbred mice [2]; 20 mg/kg, intragastric) was 8.3 ± 0.5, the “analgesic activity in hot plate test (in words)” value (outbred mice [3]; [7]) was “potent analgesic activity” and the “Hot plate, sec. (Agent)” value (outbred mice [3]; 1 mg/kg, intragastric) was 16.5 ± 1.9 s. For the same compound, the “Protection, %” value (outbred mice [3]; 1 mg/kg, intragastric) was 59%, the “Hot plate, sec. (Agent)” value (outbred mice [3]; 5 mg/kg, intragastric) was 16.3 ± 1.6 s and the “Protection, %” value (outbred mice [3]; 5 mg/kg, intragastric) was 57%. For the same compound, the “analgesic activity in hot plate test (in words)” value (outbred mice [3]; 10 mg/kg dose) was “Reliable analgesic activity”, the “Protection, %” value (outbred mice [3]; [10]) was 34% and the “Hot plate, sec. (Agent)” value (outbred mice [3]; [11]) was 13.1 ± 1.2 s. For the same compound, the “Hot plate, sec. (Agent)” value (outbred mice [3]; 20 mg/kg, intragastric) was 16.0 ± 2.6 s, the “Protection, %” value (outbred mice [3]; 20 mg/kg, intragastric) was 50% and the “Pain reduction, %” value (outbred mice [4]) was 27%. The “Writhes, quantity (Agent)” value (outbred mice [4]) was 7.4 ± 1.3, the “Hot plate, sec. (Agent)” value (outbred mice [5]) was 20.3 ± 2.2 s and the “Protection, %” value (outbred mice [5]) was 28%. For the same compound, the “acute toxicity classification (in words)” value (white outbred mice) was “moderately toxic”.
For Cc1ccsc1C1CC(C)(O)C2CCC(C)CC2O1 (stereo not shown) [Compound 1b, 4,7-dimethyl-2-(3-methylthiophene-2-yl)octahydro-2H-chromene-4-ol], the “Pain reduction, %” value (outbred mice [2]; [8]) was 36*** %, the “Writhes, quantity (Agent)” value (outbred mice [2]; [9]) was 7.0 ± 0.6 and the “Hot plate, sec. (Agent)” value (outbred mice [3]; [11]) was 12.8 ± 1.7 s.
For Cc1ccc(C2CC(C)(O)C3CCC(C)CC3O2)s1 (stereo not shown) [Compound 1c, 4,7-dimethyl-2-(5-methylthiophene-2-yl)octahydro-2H-chromene-4-ol], the “Pain reduction, %” value (outbred mice [2]; [8]) was 39*** %, the “Writhes, quantity (Agent)” value (outbred mice [2]; [9]) was 6.6 ± 0.5 and the “Hot plate, sec. (Agent)” value (outbred mice [3]; [11]) was 17.4 ± 2.4 s.
For CC1CCC2C(C1)OC(c1cc(Br)cs1)CC2(C)O (stereo not shown) [Compound 1d, 4,7-dimethyl-2-(4-bromothiophene-2-yl)octahydro-2H-chromene-4-ol], the “analgesic activity in acetic acid induced writhing test (in words)” value (outbred mice [2]; 10 mg/kg dose) was “more effective than sodium diclofenac”, the “Pain reduction, %” value (outbred mice [2]; [8]) was 63** % and the “Writhes, quantity (Agent)” value (outbred mice [2]; [9]) was 3.6 ± 1.5. For the same compound, the “Protection, %” value (outbred mice [3]; [10]) was 39% and the “Hot plate, sec. (Agent)” value (outbred mice [3]; [11]) was 13.6 ± 1.7 s.
In the case of CC1CCC2C(C1)OC(c1ccc(Br)s1)CC2(C)O (stereo not shown) [Compound 1e, 4,7-dimethyl-2-(5-bromothiophene-2-yl)octahydro-2H-chromene-4-ol], the “Pain reduction, %” value (outbred mice [2]; [8]) was 34* %, the “Writhes, quantity (Agent)” value (outbred mice [2]; [9]) was 6.3 ± 1.2 and the “Protection, %” value (outbred mice [3]; [10]) was 18%. The “Hot plate, sec. (Agent)” value (outbred mice [3]; [11]) was 11.6 ± 1.0 s.
With CC1CCC2C(C1)OC(c1ccc([N+](=O)[O-])s1)CC2(C)O (stereo not shown) [Compound 1f, 4,7-dimethyl-2-(5-nitrothiophene-2-yl)octahydro-2H-chromene-4-ol] the “Pain reduction, %” value (outbred mice [2]; [8]) was 32* %, the “Writhes, quantity (Agent)” value (outbred mice [2]; [9]) was 7.5 ± 1.2 and the “Protection, %” value (outbred mice [3]; [10]) was 20%. For the same compound, the “Hot plate, sec. (Agent)” value (outbred mice [3]; [11]) was 14.5 ± 1.6 s.
For Cc1c(N(C)CS(=O)(=O)O)c(=O)n(-c2ccccc2)n1C [Metamizole], the “ED50” value [1] is listed as 55 mg/kg and the “LD50 (acute toxicity)” value [6] is listed as 3300 mg/kg.
With O=C(O)Cc1ccccc1Nc1c(Cl)cccc1Cl [Sodium diclofenac, reference compound] the “Pain reduction, %” value (outbred mice [2]; [8]) was 50*** %, the “Writhes, quantity (Agent)” value (outbred mice [2]; [9]) was 5.0 ± 1.1 and the “Protection, %” value (outbred mice [3]; [10]) was 62** %. For the same compound, the “Hot plate, sec. (Agent)” value (outbred mice [3]; [11]) was 15.6 ± 2.4 s and the “ED50” value [1] was 5 mg/kg.
